In ChEMBL document CHEMBL1944566, “Conjugation of cell-penetrating peptides leads to identification of anti-HIV peptides from matrix proteins” (Bioorg Med Chem, 2012):
Where a SMILES comes first, the peptide text is derived from it. The star is where a group is joined. Cam = NC(=O)C*

What was measured:
[1] = system: Human immunodeficiency virus 1; experiment: Antiviral activity against R5 tropic HIV1 NL(AD8) in PM1/CCR5 cells assessed as protection from virus-induced cytopathogenicity after 5 days by MTT assay; assay type: functional, organism-based; conditions: Human immunodeficiency virus 1, NL(AD8), PM1/CCR5, 120 h
[2] = system: Human immunodeficiency virus 1; experiment: Antiviral activity against R5 tropic HIV1 JR-CSF in PM1/CCR5 cells assessed as protection from virus-induced cytopathogenicity measuring capsid p24 level after 5 days by ELISA; assay type: functional, cell-based; conditions: Human immunodeficiency virus 1, JRCSF ISOLATE, PM1/CCR5, 120 h
[3] = system: Human immunodeficiency virus 1; experiment: Antiviral activity against X4 tropic HIV1 NL4-3 in MT4 cells assessed as protection from virus-induced cytopathogenicity after 5 days by MTT assay; assay type: functional, organism-based; conditions: Human immunodeficiency virus 1, NL4-3, MT4, 120 h
[4] = Cytotoxicity against human MT4 cells after 5 days by MTT assay; assay type: cell-based

Row | SMILES | EC50 [1] [µM] | EC50 [2] [µM] | EC50 [3] [µM] | CC50 at 120 h [4] [µM]
1 | COC[C@@H](c1ccc(C(F)(F)F)cc1)N1CCN(C2(C)CCN(C(=O)c3c(C)ncnc3C)CC2)C[C@@H]1C [VICRIVIROC] | 0.026 | 0.0014 |  | 
2 | Cc1cn([C@H]2C[C@H](N=[N+]=[N-])[C@@H](CO)O2)c(=O)[nH]c1=O [ZIDOVUDINE] | 0.459 | 0.17 | 0.02 | > 100
3 | CC[C@H](C)[C@H](NC(=O)[C@H](Cc1cnc[nH]1)NC(=O)[C@H](CCCCN)NC(=O)[C@H](CC(C)C)NC(=O)[C@H](CCCCN)NC(=O)[C@H](Cc1ccc(O)cc1)NC(=O)[C@H](CCC(N)=O)NC(=O)[C@H](CCCCN)NC(=O)[C@H](CCCCN)NC(=O)CNC(=O)CNC(=O)[C@@H]1CCCN1C(=O)[C@H](CCCNC(=N)N)NC(=O)[C@H](CC(C)C)NC(C)=O)C(=O)N[C@H](C(=O)NCC(=O)N[C@@H](CSCC(N)=O)C(N)=O)C(C)C |  |  | > 50 | > 50
4 | CC[C@H](C)[C@H](NC(=O)[C@H](CCCCN)NC(=O)[C@H](CCC(=O)O)NC(=O)[C@H](Cc1c[nH]c2ccccc12)NC(=O)[C@H](CCCCN)NC(=O)[C@H](CC(=O)O)NC(=O)[C@H](CC(C)C)NC(=O)[C@H](CCC(=O)O)NC(=O)CNC(C)=O)C(=O)N[C@@H](CCCNC(=N)N)C(=O)N[C@@H](CC(C)C)C(=O)N[C@@H](CCCNC(=N)N)C(=O)N1CCC[C@H]1C(=O)NCC(=O)NCC(=O)NCC(=O)N[C@@H](CSCC(N)=O)C(N)=O | 1 |  | 17 | > 50
5 | CC[C@H](C)[C@H](NC(=O)[C@H](CCCCN)NC(=O)[C@H](CC(=O)O)NC(=O)[C@H](CC(C)C)NC(C)=O)C(=O)N[C@@H](CCC(=O)O)C(=O)N[C@@H](CCC(=O)O)C(=O)N[C@@H](CCC(=O)O)C(=O)N[C@@H](CCC(N)=O)C(=O)N[C@@H](CC(N)=O)C(=O)N[C@@H](CCCCN)C(=O)N[C@@H](CO)C(=O)N[C@@H](CCCCN)C(=O)N[C@@H](CCCCN)C(=O)N[C@@H](CCCCN)C(=O)N[C@@H](C)C(=O)NCC(=O)N[C@@H](CSCC(N)=O)C(N)=O (Ac-LDKIEEEQNKSKKKAGC(Cam)-NH2) |  |  | > 50 | > 50
6 | CC(=O)N[C@@H](CC(C)C)C(=O)NCC(=O)N[C@@H](CCC(N)=O)C(=O)N[C@@H](CC(C)C)C(=O)N[C@@H](CCC(N)=O)C(=O)N1CCC[C@H]1C(=O)N[C@@H](CO)C(=O)N[C@@H](CC(C)C)C(=O)N[C@@H](CCC(N)=O)C(=O)N[C@H](C(=O)NCC(=O)N[C@@H](CO)C(=O)N[C@@H](CCC(=O)O)C(=O)N[C@@H](CCC(=O)O)C(=O)N[C@@H](CC(C)C)C(=O)NCC(=O)N[C@@H](CSCC(N)=O)C(N)=O)[C@@H](C)O (Ac-LGQLQPSLQTGSEELGC(Cam)-NH2) |  |  | > 50 | > 50
7 | CC(=O)N[C@@H](CO)C(=O)N[C@@H](CCCCN)C(=O)N[C@@H](CCCCN)C(=O)N[C@@H](CCCCN)C(=O)N[C@@H](C)C(=O)N[C@@H](CCC(N)=O)C(=O)N[C@@H](CCC(N)=O)C(=O)N[C@@H](C)C(=O)N[C@@H](C)C(=O)N[C@@H](C)C(=O)N[C@@H](CC(=O)O)C(=O)N[C@H](C(=O)NCC(=O)N[C@@H](CC(N)=O)C(=O)N[C@@H](CC(N)=O)C(=O)NCC(=O)N[C@@H](CSCC(N)=O)C(N)=O)[C@@H](C)O |  |  | > 50 | > 50
8 | CC(=O)N[C@@H](CC(=O)O)C(=O)N[C@H](C(=O)NCC(=O)N[C@@H](CC(N)=O)C(=O)N[C@@H](CC(N)=O)C(=O)N[C@@H](CO)C(=O)N[C@@H](CCC(N)=O)C(=O)N[C@H](C(=O)N[C@@H](CO)C(=O)N[C@@H](CCC(N)=O)C(=O)N[C@@H](CC(N)=O)C(=O)N[C@@H](Cc1ccc(O)cc1)C(=O)NCC(=O)N[C@@H](CSCC(=O)N[C@@H](CCCNC(=N)N)C(=O)N[C@@H](CCCNC(=N)N)C(=O)N[C@@H](CCCNC(=N)N)C(=O)N[C@@H](CCCNC(=N)N)C(=O)N[C@@H](CCCNC(=N)N)C(=O)N[C@@H](CCCNC(=N)N)C(=O)N[C@@H](CCCNC(=N)N)C(=O)N[C@@H](CCCNC(=N)N)C(N)=O)C(N)=O)C(C)C)[C@@H](C)O | 0.43 | 11 | 20 | > 50
9 | CSCC[C@H](N)C(=O)NCC(=O)N[C@@H](C)C(=O)N[C@@H](CCCNC(=N)N)C(=O)N[C@@H](C)C(=O)N[C@@H](CO)C(=O)N[C@H](C(=O)N[C@@H](CC(C)C)C(=O)N[C@@H](CO)C(=O)NCC(=O)NCC(=O)N[C@@H](CCC(=O)O)C(=O)N[C@@H](CC(C)C)C(=O)N[C@@H](CC(=O)O)C(=O)N[C@@H](CCCCN)C(=O)NCC(=O)N[C@@H](CSCC(=O)N[C@@H](CCCNC(=N)N)C(=O)N[C@@H](CCCNC(=N)N)C(=O)N[C@@H](CCCNC(=N)N)C(=O)N[C@@H](CCCNC(=N)N)C(=O)N[C@@H](CCCNC(=N)N)C(=O)N[C@@H](CCCNC(=N)N)C(=O)N[C@@H](CCCNC(=N)N)C(=O)N[C@@H](CCCNC(=N)N)C(N)=O)C(N)=O)C(C)C | 30 | 40 | 30 | > 50
10 | CSCC[C@H](N)C(=O)NCC(=O)N[C@@H](C)C(=O)N[C@@H](CCCNC(=N)N)C(=O)N[C@@H](C)C(=O)N[C@@H](CO)C(=O)N[C@H](C(=O)N[C@@H](CC(C)C)C(=O)N[C@@H](CO)C(=O)NCC(=O)NCC(=O)N[C@@H](CCC(=O)O)C(=O)N[C@@H](CC(C)C)C(=O)N[C@@H](CC(=O)O)C(=O)N[C@@H](CCCCN)C(=O)NCC(=O)N[C@@H](CSCC(N)=O)C(N)=O)C(C)C (H-MGARASVLSGGELDKGC(Cam)-NH2) |  |  | > 50 | > 50
11 | CC(=O)N[C@@H](CC(C)C)C(=O)N[C@@H](CCC(=O)O)C(=O)N[C@@H](CCCNC(=N)N)C(=O)N[C@@H](Cc1ccccc1)C(=O)N[C@@H](C)C(=O)N[C@H](C(=O)N[C@@H](CC(N)=O)C(=O)N1CCC[C@H]1C(=O)NCC(=O)N[C@@H](CC(C)C)C(=O)N[C@@H](CC(C)C)C(=O)N[C@@H](CCC(=O)O)C(=O)N[C@H](C(=O)N[C@@H](CO)C(=O)N[C@@H](CCC(=O)O)C(=O)NCC(=O)N[C@@H](CSCC(N)=O)C(N)=O)[C@@H](C)O)C(C)C (Ac-LERFAVNPGLLETSEGC(Cam)-NH2) |  |  | > 50 | > 50
12 | CC[C@H](C)[C@H](NC(=O)[C@H](CCCCN)NC(=O)[C@H](CCC(=O)O)NC(=O)[C@H](Cc1c[nH]c2ccccc12)NC(=O)[C@H](CCCCN)NC(=O)[C@H](CC(=O)O)NC(=O)[C@H](CC(C)C)NC(=O)[C@H](CCC(=O)O)NC(=O)CNC(C)=O)C(=O)N[C@@H](CCCNC(=N)N)C(=O)N[C@@H](CC(C)C)C(=O)N[C@@H](CCCNC(=N)N)C(=O)N1CCC[C@H]1C(=O)NCC(=O)NCC(=O)NCC(=O)N[C@@H](CSCC(=O)N[C@@H](CCCNC(=N)N)C(=O)N[C@@H](CCCNC(=N)N)C(=O)N[C@@H](CCCNC(=N)N)C(=O)N[C@@H](CCCNC(=N)N)C(=O)N[C@@H](CCCNC(=N)N)C(=O)N[C@@H](CCCNC(=N)N)C(=O)N[C@@H](CCCNC(=N)N)C(=O)N[C@@H](CCCNC(=N)N)C(N)=O)C(N)=O | > 31 |  | 21 | 32
13 | CC[C@H](C)[C@H](NC(=O)[C@H](Cc1cnc[nH]1)NC(=O)[C@H](CCCCN)NC(=O)[C@H](CC(C)C)NC(=O)[C@H](CCCCN)NC(=O)[C@H](Cc1ccc(O)cc1)NC(=O)[C@H](CCC(N)=O)NC(=O)[C@H](CCC(=O)O)NC(=O)[C@H](Cc1c[nH]c2ccccc12)NC(=O)[C@H](CCCCN)NC(=O)[C@H](CC(=O)O)NC(=O)[C@H](CC(C)C)NC(=O)[C@H](CCC(=O)O)NC(=O)CNC(C)=O)C(=O)N[C@H](C(=O)NCC(=O)N[C@@H](CSCC(N)=O)C(N)=O)C(C)C (Ac-GELDKWEQYKLKHIVGC(Cam)-NH2) |  |  | > 50 | > 50
